Molecular target: T1, human RORγ-LBD (Homo sapiens, UniProt P51449)
T1 construct: made in house; host or cells: E. coli (BL-21)
T1 sequence (P51449 262-518): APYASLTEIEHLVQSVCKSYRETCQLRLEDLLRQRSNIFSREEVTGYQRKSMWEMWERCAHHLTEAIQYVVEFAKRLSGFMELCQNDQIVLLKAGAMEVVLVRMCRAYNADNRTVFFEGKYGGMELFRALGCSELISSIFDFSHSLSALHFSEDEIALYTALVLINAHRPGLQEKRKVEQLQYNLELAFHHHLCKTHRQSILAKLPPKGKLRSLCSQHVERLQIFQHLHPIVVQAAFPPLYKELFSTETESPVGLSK
Assay: ROR gamma coactivator peptide recruitment Alphascreen assay (RORγ-LBD binding to GRIP1 coactivator peptide)
Type: biochemical
Conditions: 5 nM human RORγ-LBD, 30 nM 7-β-hydroxycholesterol, 50 nM biotinylated GRIP1 coactivator peptide, overnight incubation at room temperature; read-out: result (pIC50, RORγ coactivator peptide recruitment Alphascreen assay) (converted)
Excerpt: Alphascreen™ is a bead-based amplified homogenous luminescent proximity assay that can be used for measuring the effect of compounds on protein-protein interactions. When biological interactions bring donor and acceptor beads into close proximity, reactive oxygen, generated upon laser excitation of the donor beads, initiates a luminescence/fluorescence cascade in the acceptor beads that leads to a highly amplified signal that can be measured as light in the 520-620 nm range. When the acceptor and donor beads are not in proximity, the reactive oxygen decays and only a very low background signal is generated.
An in vitro assay to assess inhibition of RORγ binding to the coactivator GRIP1 was established using Alphascreen™ technology. The interaction between nuclear receptors (NR) and coactivator proteins is a key step in signal transduction from the receptor to the transcriptional machinery and can be measured in vitro using only the ligand binding domain of the nuclear receptor and a peptide containing a coactivator protein LXXLL nuclear receptor binding motif
For the RORγ construct used in the coactivator recruitment assay, nucleotides corresponding to the ligand binding domain (LBD) of wild type human RORγ (amino acids 262-518 of Genbank Accession No. NM_005060.3) were cloned into the pET24 expression vector (Novagen), downstream of in-frame N-terminal 6×His and Flag tag sequences. Recombinant 6×His:Flag-tagged human RORγ-LBD protein was expressed in E. coli (BL-21) and purified by affinity chromatography on a nickel Sepharose column, followed by anion exchange chromatography.
A 4× assay mixture of 6×His:Flag-tagged human RORγ-LBD with the agonist ligand 7-β-hydroxycholesterol was prepared in assay buffer (50 mM HEPES pH 7.4, BSA 0.05%, 150 mM NaCl, 5 mM MgCl2, 1 mM DTT, 0.01% Tween-20). For control wells a 4× mixture of 6×His:Flag-tagged human ROR gamma LBD alone was also prepared.
A 4× stock of biotinylated coactivator peptide containing the LXXLL motif from GRIP1 (Biotin-[…]) was prepared in assay buffer.
A 4×detection mixture of nickel chelate Alphascreen™ acceptor beads (PerkinElmer) and streptavidin Alphascreen™ donor beads (PerkinElmer) was prepared in assay buffer.
Compounds to be tested were arranged in a pre-dose 384-well mother plate serially diluted 1 in 2 over 22 columns, in 100% DMSO, at 40× the final test concentration, from a high concentration of 4 mM. DMSO with no compound was placed in control columns. The compounds were robotically dispensed directly into assay plates containing assay buffer to a 4× final test concentration.
Following compound addition, the 6×His:Flag-tagged human RORγ-LBD plus 7-β-hydroxycholesterol assay mixture, biotinylated coactivator peptide and detection mixture were added. Final assay conditions were 5 nM 6×His:Flag-tagged human RORγ-LBD, 30 nM 7-β-hydroxycholesterol, 50 nM biotinylated coactivator peptide, 2.5 ug/ml nickel acceptor beads and 10 ug/ml streptavidin donor beads. The final concentration of DMSO in the assay was 2.5%.
After overnight incubation at room temperature plates were read on and Envision™ plate reader (PerkinElmer).
Data was plotted and pIC50 values were calculated using the Genedata Screener™ data analysis suite (Genedata).

Structure (SMILES)	IC50 [nM]
O=C(c1cnn([C@H]2CC[C@H](C(=O)O)CC2)c1C(F)(F)F)N(CCc1ccccc1Cl)Cc1ccc(Cl)cc1 [Example 500, trans-4-(4-((4-chlorobenzyl)(2-(2-chlorophenyl)ethyl)carbamoyl)-5-(trifluoromethyl)-1H-pyrazol-1-yl)cyclohexanecarboxylic acid]	15.1
O=C(c1cnn([C@H]2CC[C@H](C(=O)O)CC2)c1C(F)(F)F)N(CCc1c(Cl)cccc1Cl)Cc1ccc(Cl)cc1 [Example 501, trans-4-(4-((4-chlorobenzyl)(2-(2,6-dichlorophenyl)ethyl)carbamoyl)-5-(trifluoromethyl)-1H-pyrazol-1-yl)cyclohexanecarboxylic acid]	3.8
O=C(c1cnn([C@H]2CC[C@H](C(=O)O)CC2)c1C(F)(F)F)N(CCc1ccccc1)Cc1ccc(Cl)cc1 [Example 502, trans-4-(4-((4-chlorobenzyl)(2-phenylethyl)carbamoyl)-5-(trifluoromethyl)-1H-pyrazol-1-yl)cyclohexanecarboxylic acid]	275
O=C(c1cnn([C@H]2CC[C@H](C(=O)O)CC2)c1C(F)(F)F)N(CCc1ccc2cc[nH]c2c1)Cc1ccc(Cl)cc1 [Example 503, trans-4-(4-((4-chlorobenzyl)(2-(1H-indol-6-yl)ethyl)carbamoyl)-5-(trifluoromethyl)-1H-pyrazol-1-yl)cyclohexanecarboxylic acid]	355
O=C(c1cnn([C@H]2CC[C@H](C(=O)O)CC2)c1C(F)(F)F)N(CCc1ccc(Cl)cc1Cl)Cc1ccc(Cl)cc1 [Example 504, trans-4-(4-((4-chlorobenzyl)(2-(2,4-dichlorophenyl)ethyl)carbamoyl)-5-(trifluoromethyl)-1H-pyrazol-1-yl)cyclohexanecarboxylic acid]	6.92
Cc1ccc(CCN(Cc2ccc(Cl)cc2)C(=O)c2cnn([C@H]3CC[C@H](C(=O)O)CC3)c2C(F)(F)F)c(C)c1 [Example 505, trans-4-(4-((4-chlorobenzyl)(2-(2,4-dimethylphenyl)ethyl)carbamoyl)-5-(trifluoromethyl)-1H-pyrazol-1-yl)cyclohexanecarboxylic acid]	5.89
O=C(c1cnn([C@H]2CC[C@H](C(=O)O)CC2)c1C(F)(F)F)N(CCc1cccc2[nH]ccc12)Cc1ccc(Cl)cc1 [Example 506, trans-4-(4-((4-chlorobenzyl)(2-(1H-indol-4-yl)ethyl)carbamoyl)-5-(trifluoromethyl)-1H-pyrazol-1-yl)cyclohexanecarboxylic acid]	69.2
O=C(c1cnn([C@H]2CC[C@H](C(=O)O)CC2)c1C(F)(F)F)N(CCc1c[nH]c2ccccc12)Cc1ccc(Cl)cc1 [Example 507, trans-4-(4-((4-chlorobenzyl)(2-(1H-indol-3-yl)ethyl)carbamoyl)-5-(trifluoromethyl)-1H-pyrazol-1-yl)cyclohexanecarboxylic acid]	32.4
O=C(c1cnn([C@H]2CC[C@H](C(=O)O)CC2)c1C(F)(F)F)N(CCc1cccc2cc[nH]c12)Cc1ccc(Cl)cc1 [Example 508, trans-4-(4-((4-chlorobenzyl)(2-(1H-indol-7-yl)ethyl)carbamoyl)-5-(trifluoromethyl)-1H-pyrazol-1-yl)cyclohexanecarboxylic acid]	759
Cc1ccccc1CCN(Cc1ccc(Cl)cc1)C(=O)c1cnn([C@H]2CC[C@H](C(=O)O)CC2)c1C(F)(F)F [Example 509, trans-4-(4-((4-chlorobenzyl)(2-(2-methylphenyl)ethyl)carbamoyl)-5-(trifluoromethyl)-1H-pyrazol-1-yl)cyclohexanecarboxylic acid]	11.5
Cc1cc(Cl)c(CCN(CC2CCCCC2)C(=O)c2cnn([C@H]3CC[C@H](C(=O)O)CC3)c2C(F)(F)F)c(Cl)c1 [Example 510, trans-4-(4-((cyclohexylmethyl)(2-(2,6-dichloro-4-methylphenyl)ethyl)carbamoyl)-5-(trifluoromethyl)-1H-pyrazol-1-yl)cyclohexanecarboxylic acid]	1.78

More lines, now with the values ahead:

IC50 [nM]	Structure (SMILES)
110	C[C@@H]1C[C@@H](n2ncc(C(=O)N(CC(=O)c3c(Cl)cncc3Cl)CC3(F)CC3)c2C(F)(F)F)CC[C@@H]1C(=O)O (stereo in doubt) [Example 736, (1S,2R,4S)-4-(4-((2-(3,5-dichloro-4-pyridinyl)-2-oxoethyl)((1-fluorocyclopropyl)methyl)carbamoyl)-5-(trifluoromethyl)-1H-pyrazol-1-yl)-2-methylcyclohexanecarboxylic acid]
14.1	C[C@H]1C[C@H](n2ncc(C(=O)N(CC(=O)c3c(Cl)cncc3Cl)CC3(F)CC3)c2C(F)(F)F)CC[C@H]1C(=O)O (stereo in doubt) [Example 737, (1R,2S,4R)-4-(4-((2-(3,5-dichloro-4-pyridinyl)-2-oxoethyl)((1-fluorocyclopropyl)methyl)carbamoyl)-5-(trifluoromethyl)-1H-pyrazol-1-yl)-2-methylcyclohexanecarboxylic acid]
81.3	C[C@H]1C[C@H](n2ncc(C(=O)N(CC(=O)c3c(Cl)cncc3Cl)C[C@@H]3CCC(C)(C)O3)c2C(F)(F)F)CCC1C(=O)O (stereo in doubt) [Example 773, (1S,2S,4R)-4-(4-((2-(3,5-dichloro-4-pyridinyl)-2-oxoethyl)(((2S)-5,5-dimethyltetrahydro-2-furanyl)methyl)carbamoyl)-5-(trifluoromethyl)-1H-pyrazol-1-yl)-2-methylcyclohexanecarboxylic acid]
2.95	C[C@@H]1CC(n2ncc(C(=O)N(CC(=O)c3c(Cl)cccc3Cl)CC(C)(C)C)c2C(F)(F)F)CCC1C(=O)O (stereo in doubt) [Example 794, (1S,2R,4S)-4-(4-((2-(2,6-dichlorophenyl)-2-oxoethyl)(2,2-dimethylpropyl)carbamoyl)-5-(trifluoromethyl)-1H-pyrazol-1-yl)-2-methylcyclohexanecarboxylic acid]
309	C[C@H]1C[C@](C)(C(=O)O)CC[C@H]1n1ncc(C(=O)N(CC(=O)c2c(Cl)cncc2Cl)CC(C)(C)C)c1C(F)(F)F (stereo in doubt) [Example 842, (1R,3S,4R)-4-(4-((2-(3,5-dichloro-4-pyridinyl)-2-oxoethyl)(2,2-dimethylpropyl)carbamoyl)-5-(trifluoromethyl)-1H-pyrazol-1-yl)-1,3-dimethylcyclohexanecarboxylic acid]
5.75	C[C@@H]1C[C@](C)(C(=O)O)CC[C@H]1n1ncc(C(=O)N(CC(=O)c2c(Cl)cncc2Cl)CC(C)(C)C)c1C(F)(F)F (stereo in doubt) [Example 855, (1R,3R,4R)-4-(4-((2-(3,5-dichloro-4-pyridinyl)-2-oxoethyl)(2,2-dimethylpropyl)carbamoyl)-5-(trifluoromethyl)-1H-pyrazol-1-yl)-1,3-dimethylcyclohexanecarboxylic acid]
4.79	CC1C[C@@H](n2ncc(C(=O)N(CC(=O)c3c(Cl)cncc3Cl)CC(C)(C)C)c2C(F)(F)F)CC[C@]1(C)C(=O)O (stereo in doubt) [Example 861, (1S,2S,4S)-4-(4-((2-(3,5-dichloro-4-pyridinyl)-2-oxoethyl)(2,2-dimethylpropyl)carbamoyl)-5-(trifluoromethyl)-1H-pyrazol-1-yl)-1,2-dimethylcyclohexanecarboxylic acid]
2.95	C[C@H]1C[C@@H](n2ncc(C(=O)N(CC(=O)c3c(Cl)cncc3Cl)CC(C)(C)C(F)(F)F)c2C(F)(F)F)CC[C@@H]1C(=O)O (stereo in doubt) [Example 864, (1S,2S,4S)-4-(4-((2-(3,5-dichloro-4-pyridinyl)-2-oxoethyl)(3,3,3-trifluoro-2,2-dimethylpropyl)carbamoyl)-5-(trifluoromethyl)-1H-pyrazol-1-yl)-2-methylcyclohexanecarboxylic acid]
